Test systems include CAKI-1 renal; COLO 205 colon; HL-60(TB) leukemia; HS 578T breast; IGROV1 ovarian; KM12 colon; M14 melanoma; MDA-N; NCI-H226 lung; NCI-H522 lung; NCI/ADR-RES ovarian; OVCAR-5 ovarian; OVCAR-8 ovarian; PC-3 prostate; RXF 393 renal; SK-MEL-5 melanoma; SK-OV-3 ovarian; SNB-75 CNS; UO-31 renal; HOP-92 NSCLC.
Holding throughout (experiment): inhibition of tumour cell growth, NCI panel, 48 h

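Values below derive from 48-hour exposures of cells grown in 96-well plates, with endpoints linearly interpolated between the two concentrations bracketing the appropriate inhibition level. Definition used: TGI = concentration required for complete inhibition of growth.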

Regarding `O=C(CCCN1CCC2(CC1)CC(=O)N(N1CCOCC1)C2=O)c1ccc(F)cc1`, the TGI in the experiment on CAKI-1 renal, with COLO 205 colon, in the experiment on HL-60(TB) leukemia, with HS 578T breast, in the experiment with IGROV1 ovarian and with KM12 colon was over 100 µM in each case. In addition, the TGI with M14 melanoma, in the experiment on MDA-N, in the experiment on NCI-H226 lung, in the experiment on NCI-H522 lung, in the experiment on NCI/ADR-RES ovarian and in the experiment on OVCAR-5 ovarian was over 100 µM throughout. Moreover, the TGI in the experiment on OVCAR-8 ovarian, with PC-3 prostate, with RXF 393 renal, with SK-MEL-5 melanoma, with SK-OV-3 ovarian and in the experiment with SNB-75 CNS was over 100 µM each time. In addition, in the experiment with UO-31 renal, the TGI was over 100 µM.
For `CC(=O)Oc1ccc2cc(Oc3ccc(Cl)c(Cl)c3)c(=O)oc2c1`, the TGI with CAKI-1 renal was 58.7 µM; with HL-60(TB) leukemia, over 100 µM; in the experiment on HOP-92 NSCLC, 78.8 µM; in the experiment with HS 578T breast it was over 100 µM; in the experiment on IGROV1 ovarian, over 100 µM; in the experiment on KM12 colon it was 48.7 µM. Moreover, the TGI in the experiment with M14 melanoma is over 100 µM; with MDA-N, 56.6 µM; with NCI-H226 lung, 82.9 µM; in the experiment with NCI-H522 lung it was 46.5 µM; in the experiment with OVCAR-5 ovarian, over 100 µM; with OVCAR-8 ovarian, 69.5 µM. For the same compound, the TGI in the experiment with PC-3 prostate is 53.3 µM; with RXF 393 renal, 65.9 µM; with SK-MEL-5 melanoma it was 35.5 µM; in the experiment with SNB-75 CNS, over 100 µM; in the experiment on UO-31 renal, 51 µM.
As for `CCN(CC)CCN(C(=Nc1ccccc1)N1CCCCC1)c1ccccc1`, the TGI was over 100 µM in the experiment with CAKI-1 renal; 13.1 µM with COLO 205 colon; 6.95 µM in the experiment with HL-60(TB) leukemia; 27 µM with HS 578T breast; 20.6 µM with IGROV1 ovarian; 23.9 µM in the experiment with KM12 colon. Besides, the TGI came to 21.7 µM with M14 melanoma; 11.2 µM in the experiment with MDA-N; 29.3 µM in the experiment on NCI-H226 lung; 13.2 µM with NCI-H522 lung; 29.5 µM in the experiment with OVCAR-8 ovarian; 24.8 µM in the experiment on PC-3 prostate. Besides, the TGI with RXF 393 renal was 41.1 µM; with SK-MEL-5 melanoma, 17.6 µM; in the experiment with SK-OV-3 ovarian, 24.2 µM; with UO-31 renal, 26.5 µM.
As to `CN(C)CCNC(=O)c1cccc2c(NC(CS)C(=O)O)c3ccccc3[n+](C)c12` (stereo not given), the TGI is over 100 µM with COLO 205 colon; over 100 µM in the experiment on HS 578T breast; over 100 µM with IGROV1 ovarian; over 100 µM with KM12 colon; over 100 µM with M14 melanoma; 93.2 µM with NCI/ADR-RES ovarian. Also, the TGI in the experiment on OVCAR-5 ovarian, in the experiment on OVCAR-8 ovarian, in the experiment with PC-3 prostate, with SK-MEL-5 melanoma, in the experiment with SK-OV-3 ovarian and in the experiment on SNB-75 CNS was over 100 µM throughout. In the experiment with UO-31 renal, this compound came in with a TGI of over 100 µM.
For `N#Cc1ccc(CSC2=C(c3ccc(Cl)cc3)S/C(=C3\SC(SCc4ccc(C#N)cc4)=C(c4ccc(Cl)cc4)S3)S2)cc1`, the TGI in the experiment on CAKI-1 renal, in the experiment on COLO 205 colon, in the experiment on HL-60(TB) leukemia, in the experiment with HS 578T breast, in the experiment on IGROV1 ovarian and with KM12 colon was over 100 µM in each case. In addition, the TGI with M14 melanoma, with MDA-N, in the experiment on NCI-H226 lung, with NCI-H522 lung, in the experiment with NCI/ADR-RES ovarian and in the experiment with OVCAR-5 ovarian was over 100 µM in each case. Further, the TGI with OVCAR-8 ovarian, in the experiment with PC-3 prostate, with RXF 393 renal, in the experiment on SK-MEL-5 melanoma and with SK-OV-3 ovarian was over 100 µM each time.
In the case of `O=C(CC(C(=O)c1cccs1)c1ccsc1)c1ccccc1` (stereo not given), the TGI with CAKI-1 renal, in the experiment on COLO 205 colon, in the experiment on HOP-92 NSCLC, in the experiment on HS 578T breast, in the experiment with IGROV1 ovarian and in the experiment with KM12 colon was over 100 µM throughout. Moreover, the TGI in the experiment with M14 melanoma was over 100 µM; in the experiment with MDA-N, over 100 µM; in the experiment with NCI-H226 lung, over 100 µM; in the experiment with NCI-H522 lung, over 100 µM; in the experiment with NCI/ADR-RES ovarian, 80.4 µM; in the experiment with OVCAR-5 ovarian it was over 100 µM. Also, the TGI in the experiment on OVCAR-8 ovarian, in the experiment on RXF 393 renal, with SK-MEL-5 melanoma, in the experiment with SK-OV-3 ovarian, in the experiment on SNB-75 CNS and in the experiment with UO-31 renal was over 100 µM each time.
Take `CC1CC/C(=C\c2ccc(N(C)C)cc2)C2=C1C(c1ccc(N(C)C)cc1)NC(=S)N2` (stereo not given): the TGI in the experiment with CAKI-1 renal, in the experiment with COLO 205 colon, in the experiment on HL-60(TB) leukemia, in the experiment with HS 578T breast, in the experiment with IGROV1 ovarian and with KM12 colon was over 100 µM each time. Moreover, the TGI in the experiment on M14 melanoma, with MDA-N, in the experiment with NCI-H226 lung, with NCI/ADR-RES ovarian, in the experiment on OVCAR-5 ovarian and with OVCAR-8 ovarian was over 100 µM throughout. Besides, the TGI in the experiment with PC-3 prostate, in the experiment on RXF 393 renal, in the experiment with SK-MEL-5 melanoma, with SK-OV-3 ovarian, with SNB-75 CNS and in the experiment on UO-31 renal was over 100 µM in each case.
With `COC(=O)C1=COC(OC2OC(CO)C(O)C(O)C2O)C2C3CN4CCc5c([nH]c6ccccc56)C4(CC12)O3` (stereo not given), the TGI in the experiment on CAKI-1 renal, in the experiment on COLO 205 colon, in the experiment on HL-60(TB) leukemia, with IGROV1 ovarian, with KM12 colon and with M14 melanoma was over 100 µM throughout. Further, the TGI with MDA-N, in the experiment on NCI-H226 lung, in the experiment with NCI/ADR-RES ovarian, in the experiment on OVCAR-5 ovarian, in the experiment on OVCAR-8 ovarian and in the experiment on PC-3 prostate was over 100 µM each time. In addition, the TGI in the experiment with RXF 393 renal, in the experiment on SK-MEL-5 melanoma, in the experiment with SK-OV-3 ovarian, in the experiment on SNB-75 CNS and with UO-31 renal was over 100 µM throughout.

The record behind these values is PubChem BioAssay (NCI).
